Results as given in US7759399B2, “Pharmaceutical compositions” (priority 2002, dated 2010).

Columns and labels:
HSF = HSF luciferase reporter assay, HeLa cell clone 13B (human hsp70 promoter); format: cell-based; details: 8 h, HeLa clone 13B, 8 h treatment, serum-free medium, read-out: HSF, AC200 (concentration at which the compound doubled the HSF activity)
Description: (§1) Method: HeLa cell clone 13B, stably transfected with a luciferase reporter plasmid controlled by the human hsp70 promoter, and HeLa κB-transformed cells, stably transfected with a luciferase reporter plasmid controlled by a synthetic NF-κB-STM construct, were maintained in DMEM medium supplemented with 10% FBS, L-glutamine (2 mM) and G418 (250 μg/ml) at 37° C. in a 5% CO2 humidified atmosphere.
(§2) Cells were seeded at a density of 4×10^4 cells/well in 96-well plates. After 18-20 h, the medium was removed and cells were treated for 8 h with the test compounds (100 μl) at the appropriate dilutions in serum-free medium. For the NF-κB-dependent reporter gene assay, cells were stimulated with TPA (25 ng/ml) 2 h after exposure to the compounds.
(§3) After incubation, the medium was removed and cells were lysed in 10 μl of lysis buffer. The luciferase activity was determined by adding 100 μl of substrate and measuring the release of light using a Victor 1420 microplate reader (Wallac, Finland).
(§4) The AC200/μM for HSF is the concentration at which the tested compound doubled the HSF activity in this assay. The IC50/μM for NF-κB is the concentration at which the tested compound halved the NF-κB activity in this assay.

NF-κB = assay: NF-κB-dependent luciferase reporter gene assay, HeLa κB-transformed cells, TPA stimulated; format: cell-based; details: Homo sapiens, HeLa, 8 h treatment, TPA 25 ng/ml 2 h after exposure, read-out: NF-κB, IC50 (concentration at which the compound halved the NF-κB activity)
Description: as §1, §2, §3
The fragment Kpn I-BamH I from the pGL3 basic vector containing the luciferase gene (PROMEGA) was inserted in the pcDNA3 vector (INVITROGEN) digested with Bgl II-KpnI. (This digestion removes the CMV-promoter from pcDNA3.) The resulting new vector was digested with Kpn I-Hind III and a promoter containing a ‘5xNF-κB binding sites—TATA box’ sequence was inserted upstream of the luciferase gene. This vector has been named STM.
To obtain stable HeLa cell lines expressing the luciferase gene under the control of NF-κB, HeLa cells were transfected (using lipofectamine plus GIBCO) with the STM-Pvu I linearized vector, and selected for 20 days with G418 (800 μg/ml). After selection, the resistant HeLa cell pool was controlled (in quadruplicate samples) for luciferase activity after stimulation with TNFα, IL-1 and TPA.
as §4

uninfected 37RC cells = assay: Toxicity to uninfected cells, determined visually by microscopy (TD100)
Sendai virus = Sendai virus replication in 37RC cells (virus yield by HAU titration); format: cell-based; details: Respirovirus muris, 5 HAU/10^5 cells, virus yield at 24 hours after infection, read-out: ID50 (50% inhibitory dose/concentration), Sendai virus yield
[1] = Alamar Blue cytotoxicity assay; format: cell-based; details: human
Description: HeLa cells were plated in 96-well microtiter plates in 100 μl culture medium (4×10^4/well). After 20 hours, the cells were exposed to the test compounds at different dilutions and incubated for the next 8 h at 37° C. in a 5% CO2 humidified atmosphere. After 6 h incubation, the Alamar Blue was added in an amount equal to 10% of the culture volume (10 μl). Two hours after the addition of the Alamar Blue, the fluorescence was measured using a Victor 1420 microplate reader.
The LC50/μM is the concentration at which the tested compound killed half the cells in this assay.

in vitro = format: cell-based; details: 37RC cells, 24 h treatment; read-out: LC50 (50% lethal dose/concentration), Neutral Red
Description: Cell viability was determined using the Neutral Red assay. 37RC cells were seeded at density of 6×10^4 cells/well in 24-well plates and incubated for 24 h. Confluent 37RC monolayers were treated with the test compounds at different dilutions for 24 h at 37° C. After incubation, the medium was removed and the cells were incubated with RPMI medium containing 40 μg/ml Neutral Red dye (500 μl/well). After 2 h at 37° C., the monolayers were washed with phosphate-buffered saline (PBS) and then with a solution containing 1% CaCl2 and 0.5% formaldehyde. After washing, a solution containing 1% acetic acid/50% ethanol was added to the monolayers (250 μl/well). After 10 min at room temperature, the absorbance was determined with a microplate reader (Victor 1420, Wallac) at 540 nm.

SMILES | EC (2-fold) (HSF) [µM] | IC50 (NF-κB) [µM] | TD100 (dose or concentration at which the compound was 100% toxic to uninfected cells) (uninfected 37RC cells) [µM] | IC50 (Sendai virus) [µM] | CC50 at 8 h [1] [µM] | CC50 at 24 h (in vitro) [µM]
CC(C)(C)[Si](C)(C)O[C@H]1CC(=O)C[C@@H]1Sc1ccccn1 [CTM-86] | 20 | 36 | 10 | 2 | 96 | 7
CC(=O)Nc1ccc(S[C@H]2CC(=O)C[C@@H]2O[Si](C)(C)C(C)(C)C)cc1 [CTM-81] | 28 | 31 | 50 | 1 | 181 | 17
CC(C)(C)[Si](C)(C)O[C@H]1CC(=O)C[C@@H]1Sc1ncccn1 [CTM-84] | 28 | 28 | 10 | 1 | 556 | 6.3
CCOC(=O)[C@H](CS[C@H]1CC(=O)C[C@@H]1O[Si](C)(C)C(C)(C)C)NC(=O)OC(C)(C)C [CTM-184] | 24 | 61 | 50 | 1 | – | 25
CC(=O)N[C@@H](CS[C@H]1CC(=O)C[C@@H]1O[Si](C)(C)C(C)(C)C)C(=O)OC(C)(C)C [CTM-106] | 26 | > 100 | 50 | 4 | 536 | 28
C[C@@H](CS[C@H]1CC(=O)C[C@@H]1O[Si](C)(C)C(C)(C)C)C(=O)N1CCCC1C(=O)O (stereo partly drawn) [CTM-182] | 60 | > 100 | 100 | 5 | – | 54
Cc1ccc(S[C@H]2CC(=O)C[C@@H]2O[Si](C)(C)C(C)(C)C)cc1 [CTM-80] | 60 | > 100 | 50 | 1 | > 800 | 16
COC(=O)[C@H](CS[C@H]1CC(=O)CC[C@@H]1O[Si](C)(C)C(C)(C)C)NC(=O)OC(C)(C)C [CTM-68, (R)-2-tert-Butoxycarbonylamino-3-[(1S,2S)-2-(tert-butyl-dimethyl-silanyloxy)-5-oxo-cyclohexylsulfanyl]-propionic acid methyl ester] | 98 | – | 9.8 | – | – | 9.8
COC(=O)CS[C@H]1CC(=O)C[C@@H]1O[Si](C)(C)C(C)(C)C [CTM-87] | 48 | 52 | 50 | 4 | 260 | 38
COC(=O)C(CSC1CC(=O)CC(O[Si](C)(C)C(C)(C)C)C1)NC(=O)OC(C)(C)C (stereo not drawn) [CTM-78, 2-tert-Butoxycarbonylamino-3-[3-(tert-butyl-dimethyl-silanyloxy)-5-oxo-cyclohexylsulfanyl]-propionic acid methyl ester] | 45 | – | 18.6 | – | – | 18.6
CC(C)(C)[Si](C)(C)O[C@H]1CC(=O)C[C@@H]1Sc1ccc([N+](=O)[O-])cc1 [CTM-107] | 21 | 47 | 10 | 0.3 | 169 | –
CC(C)(C)OC(=O)N[C@@H](CS[C@H]1CC(=O)C[C@@H]1O[Si](C)(C)C(C)(C)C)C(=O)OC(C)(C)C [CTM-183] | – | – | 50 | 1.6 | – | 28
